Values of other authors in patent US20080274188A1, “Oral Vehicle For Systemic Pharmaceuticals” (priority 2005, published 2008).
Where two headings read alike, the source gives them in different places.

Conditions: for Solubility water: words

CC(=O)Nc1ccc(O)cc1 [Acetaminophen]
Solubility water (cold water): Cold-v slight
Solubility water (hot water): Hot-considerably more

Cc1onc(-c2ccccc2Cl)c1C(=O)N[C@@H]1C(=O)N2[C@@H]1SC(C)(C)[C@@H]2C(=O)O [Cloxacillin, Cloxacillin (Na monohydrate)]
Solubility water (temperature not stated): soluble

COc1ccc2c3c1O[C@H]1[C@@H](O)C=C[C@H]4[C@@H](C2)N(C)CC[C@@]341 [Codeine phosphate]
Solubility water (ml of water for 1 g) (temperature not stated, 1 g in the stated ml): 1 g in 2.5 ml water.

C1CNCCN1 [Piperazine]
Solubility water (temperature not stated): Freely soluble
